Square brackets hold non-standard residues; d marks the D form. Ends that are not written are not given here. Peptide text beside a SMILES is read from it.
How the values were obtained:
[1] = test system: normal human dermal microvessel endothelial cells (DMECs); assay: in vitro; format: cell-based; details: controls and alternative prototype; data not shown
Experimental: (§1) The effect of HPP-1 was assayed on normal human dermal microvessel endothelial cells (DMECs) under the angiogenic conditions of proliferation and cord formation. In addition, the effect of HPP-1 was assayed under the angiostatic condition of a monolayer maintained at 100% confluency (as described below).
(§2) Briefly, dermal microvessel endothelial cells (DMECs) were grown in CADMEC Growth Media™ (Cell Applications, Inc.; San Diego, Calif.). Dermal microvessel endothelial cells were then cultured under three experimental conditions: proliferation, 30% confluency in a growth media supplemented with 500 ng/ml human recombinant vascular endothelial growth factor (VEGF; Pharmingen); no proliferation, 100% confluency in media formulated to maintain a monolayer; and cord formation, 60% confluency (required for induction) in media formulated to induce cord formation. The KS1767 and MDA-MB-435 cells were cultured as described in Arap et al., supra, 1998; Hernier et al., supra, 1994).
(§3) Percent viability and LC50 (Table 1) were determined by apoptotic morphology as described in Ellerby et al., J. Neurosci. 17:6165-6178 (1997). For the percent viability assays, dermal microvessel endothelial cells were treated with 60 μM HPP-1 or control peptide D(KLAKLAK)2. At the indicated time points, cell culture medium was aspirated from adherent cells, and the cells were gently washed once with PBS at 37° C. Subsequently, a 20-fold dilution of the dye mixture (100 μg/ml acridine orange and 100 μg/ml ethidium bromide) in PBS was gently pipetted on the cells, which were viewed on an inverted microscope (Nikon TE 300). […] At least 500 cells were scored for a given time point in each experiment. Percent viability was calculated relative to untreated controls. The LC50 for monolayer, proliferation ([…]), and cord formation were scored at 72 hours.

prostate = assay: In vivo panning of X7 phage library, prostate versus brain; set-up: species or system mice; details: phage displayed peptide
Experimental: An X7 library was injected into mice, and sequences isolated that were preferentially found in prostate as compared to brain as described in WO 99/46284.

bacteria = details: Javadpour et al. 1996; cited from earlier work
[2] = test system: human 435 breast carcinoma tumor; assay: In vivo targeting of RGD phage to breast tumor; set-up: species or system nude mice; details: coinjection of 500 μg free peptide
Experimental: Human 435 breast carcinoma cells were inoculated into the mammary fat pad of nude mice. When the tumors attained a diameter of about 1 cm, phage expressing a specific RGD-containing peptide were administered to the tumor bearing mouse. Similar results to those discussed below also were obtained with nude mice bearing tumors formed by implantation of human melanoma C8161 cells or by implantation of mouse B16 melanoma cells.
1×10^9 phage expressing the RGD-containing peptide, […] (SEQ ID NO: 1; see, Koivunen et al., supra, 1995) or control (insertless) phage were injected intravenously (iv) into the mice and allowed to circulate for 4 min. The mice then were snap frozen or perfused through the heart while under anesthesia, and various organs, including tumor, brain and kidney, were removed and the phage present in the organs was quantitated (see U.S. Pat. No. 5,622,699; Pasqualini and Ruoslahti, supra, 1996).

[3] = test system: breast carcinoma xenografts; assay: Competition of phage homing by co-injected free peptide
[4] = test system: prostate cancer in TRAMP mice; assay: Treatment of TRAMP mice (transgenic prostate cancer); format: in vivo; details: 250 μg/dose; 10 mice per group
Experimental: TRAMP mice develop prostate cancer under the influence of a transgene as described in Gingrich et al., supra, 1996. SMSIARL-GG-D(KLAKLAK)2 chimeric peptide was assayed for the ability to suppress cancer development in the TRAMP mice. Treatment was initiated at 12 weeks of age with mice (10 per group) receiving SMSIARL-GG-D(KLAKLAK)2 peptide or control peptide at 250 μg/dose every other week for a total of 10 doses. Four mice, which had no visible tumor, were eliminated from the SMSIARL-GG-D(KLAKLAK)2 group after dying within minutes after the injection.

normal mouse prostate = assay: Prostate-selective apoptosis (TUNEL staining); format: in vivo; details: single dose of 250 μg peptide/mouse; 24 hours
Experimental: The ability of the SMSIARL peptide (SEQ ID NO: 207) to deliver a pro-apoptotic peptide, D(KLAKLAK)2, to the prostate was analyzed. Briefly, SMSIARL-GG-D(KLAKLAK)2 chimeric peptide or control material was administered as a single dose of 250 μg peptide/mouse, and TUNEL staining was performed on tissues obtained 24 hours later.

prostate tissue = assay: Prostate homing of SMSIARL phage after intravenous injection; format: in vivo, mice; details: coinjection
From the text: Using in vivo screening of a heptapeptide phage library, a prostate-homing peptide has been identified that concentrates in the prostate 35-fold more than in various other tissues.

[5] = test system: normal human dermal microvessel endothelial cells (DMECs); format: cell-based; set-up: dose or concentration left out as unconfirmed; details: proliferation or cord formation
in vitro = format: cell-based; details: human; monolayer at 100% confluency; scored at 72 hours; means of three independent experiments; read-out: LC50 DMEC Angiostatic
Experimental: as §1, §2, §3

rat liver mitochondria = assay: Mitochondrial swelling assay (optical absorbance at 520 nm); format: biochemical
Experimental: Mitochondrial swelling assays were performed as follows. Briefly, rat liver mitochondria were prepared as described in Ellerby et al., J. Neurosci. 17:6165-6178 (1997). Peptides were synthesized at higher than 90% purity by HPLC (DLSLARLATARLAI (SEQ ID NO: 204), Coast Scientific, Inc., San Diego, Calif.; all other peptides, AnaSpec, Inc.). Mitochondria were treated with a concentration of 10 μM D(KLAKLAK)2, 10 μM DLSLARLATARLAI negative control peptide (SEQ ID NO: 204), or 200 μM CA^+2 as a positive control. Peptides were added to mitochondria in a cuvette, and swelling was quantified by measuring the optical absorbance at 520 nm.

[6] = Cytotoxicity to eukaryotic cells (lethal concentration for 50% of a cell monolayer); format: cell-based; details: human; lethal concentration required to kill 50% of a cell monolayer; read-out: concentration required to kill eukaryotic cells (LC50)
Experimental: (§4) Mild swelling was evident at a concentration of 3 μM, two orders of magnitude less than the concentration required to kill eukaryotic cells (approximately 300 μM), as measured by the lethal concentration required to kill 50% of a cell monolayer (LC50; Table 1).
as §3

[7] = test system: dermal microvessel endothelial cells; assay: Mitochondrial morphology of proliferating DMECs (MitoTracker Red / DAPI); format: cell-based, human; details: 60 μM peptide, 24 hours
Experimental: Mitochondrial morphology of dermal microvessel endothelial cells was assessed in proliferating cells after treatment with 60 μM HPP-1, […]-GG-D(KLAKLAK)2 or untargeted D(KLAKLAK)2 as follows. Dermal microvessel endothelial cells were stained after 24 and 72 hours treatment with peptide by incubation for 30 min at 37° C. with 100 nM mitochondrial stain MitoTracker Red™ (Molecular Probes, Inc., Eugene Oreg.) and 500 nM of the nuclear stain DAPI (Molecular Probes, Inc.). Mitochondria were subsequently visualized using fluorescence microscopy (100×) under an inverted microscope using a triple wavelength filter set (Nikon).

[8] = test system: caspase-3 processing in rat liver mitochondria suspended in normal cytosolic extract; assay: Mitochondria-dependent cell-free apoptosis (caspase-3 processing immunoblot); format: biochemical; details: 100 μM peptide, 2 hours, in the presence of mitochondria
Experimental: The D(KLAKLAK)2 peptide was assayed for the ability to activate mitochondria-dependent apoptosis in a cell-free system composed of normal mitochondria suspended in normal cytosolic extract (Ellerby et al., J. Neurosci. 17:6165-6178 (1997)).
The cell-free apoptosis assays were performed essentially as follows. The cell-free systems were reconstituted as described in Ellerby et al., supra, 1997, and, for mitochondria-dependent reactions, rat liver mitochondria were suspended in normal (non-apoptotic) cytosolic extract prepared from dermal microvessel endothelial cells. After adding peptides at a concentration of 100 μM and incubating for 2 hours at 30° C. or 37° C., mitochondria were removed by centrifugation, and the supernatant analyzed by SDS/PAGE immunoblotting on a 12% gel (Biorad; Hercules, Calif.). Proteins were transferred to PVDF membranes (Biorad) and incubated with anti-caspase-3 antibody (Santa Cruz Biotechnology; Santa Cruz, Calif.), followed by ECL detection (Amersham; Arlington Heights, Ill.).

eukaryotic cells = assay: Cytotoxicity to eukaryotic cells (lethal concentration for 50% of a cell monolayer); format: cell-based
Experimental: as §4, §3

Which “effect on viability of dermal microvessel endothelial cells, compared with other peptide” value [1] does the source give for “CARAC-GG-D(KLAKLAK)2 [reference compound]” here?
Its value is “results similar to D(KLAKLAK) 2”.

For VSFLEYR [prostate homing peptide], which “enrichment in prostate as compared to brain” value (prostate) is on record?
Its value is 17 fold.

For “KLAKLAKKLAKLAK [synthetic antimicrobial 14-mer of Javadpour et al]”, which “concentration that kills bacteria relative to concentration required to kill eukaryotic cells” value (bacteria) is on record?
The value was “two orders of magnitude lower”.

For GRGESP, which “reduction of phage in the tumor by coinjected free peptide” value [2] is on record?
Its value is “essentially had no effect”.

For “CNGRC (not fully specified; cysteine pairing not given here)”, which “effect of co-injected peptide on homing of […] phage” value [3] is on record?
The value was “did not inhibit”.

What about the “effect of co-injected peptide on accumulation of NGR phage in tumor” value ([3]; phage expressing CNGRCVSGCAGRC) of the same compound?
Its value is “inhibited”.

Which “effect on viability of dermal microvessel endothelial cells, compared with other peptide” value [1] does the source give for “CGRNC-GG-D(KLAKLAK)2 [reference compound]” here?
The value was “results similar to D(KLAKLAK) 2”.

Which results are given for CC[C@H](C)[C@H](NC(=O)[C@H](CO)NC(=O)[C@H](CCSC)NC(=O)[C@@H](N)CO)C(=O)N[C@@H](C)C(=O)N[C@@H](CCCNC(=N)N)C(=O)N[C@@H](CC(C)C)C(=O)NCC(=O)NCC(=O)N[C@H](CCCCN)C(=O)N[C@H](CC(C)C)C(=O)N[C@H](C)C(=O)N[C@H](CCCCN)C(=O)N[C@H](CC(C)C)C(=O)N[C@H](C)C(=O)N[C@H](CCCCN)C(=O)N[C@H](CCCCN)C(=O)N[C@H](CC(C)C)C(=O)N[C@H](C)C(=O)N[C@H](CCCCN)C(=O)N[C@H](CC(C)C)C(=O)N[C@H](C)C(=O)N[C@H](CCCCN)C(=O)O [SMSIARL-GG-D(KLAKLAK)2] (H-SMSIARLGG[dK][dL][dA][dK][dL][dA][dK][dK][dL][dA][dK][dL][dA][dK]-OH)?
mice dying within minutes after the injection [4]: Four; apoptosis in other tissues such as testis, kidney or brain (TUNEL) (normal mouse prostate): no evidence of increased apoptosis

With SMSIARL [prostate homing peptide] as the compound, how does the “enrichment in prostate as compared to brain” value (prostate) read?
The value was 34 fold.

What about the “effect of coinjected synthetic peptide on prostate-selective phage homing” value (prostate tissue) of the same compound?
The value was “inhibited the prostate-selective homing of phage”.

What does the source list for CC(C)C[C@@H](NC(=O)[C@H](N)CCCCN)C(=O)N[C@H](C)C(=O)N[C@H](CCCCN)C(=O)N[C@H](CC(C)C)C(=O)N[C@H](C)C(=O)N[C@H](CCCCN)C(=O)N[C@H](CCCCN)C(=O)N[C@H](CC(C)C)C(=O)N[C@H](C)C(=O)N[C@H](CCCCN)C(=O)N[C@H](CC(C)C)C(=O)N[C@H](C)C(=O)N[C@H](CCCCN)C(=O)O [D(KLAKLAK)2]?
percent viability with time relative to untreated controls [5]: negligible loss in viability; CC50 at 72 h (in vitro): 492 µM; mitochondrial swelling (rat liver mitochondria; 3 μM peptide): Mild swelling; mitochondrial swelling (rat liver mitochondria; 10 μM peptide): marked mitochondrial swelling; CC50 at 72 h [6]: ~300 µM; mitochondrial morphology [7]: remained morphologically normal; caspase-3 processing in cell-free system [8]: characteristic caspase-3 processing the active protease was observed

For “DLSLARLATARLAI [non-α-helix forming negative control peptide]”, which mitochondrial swelling (rat liver mitochondria; 10 μM peptide) is on record?
Its mitochondrial swelling is “did not induce mitochondrial swelling”.

And the “lethality to eukaryotic cells” value (eukaryotic cells)?
The value was “not lethal”.

What about the “caspase-3 processing in cell-free system” value [8] of the same compound?
Its value is “inactive”.

Reference: patent US20010046498A1, “Chimeric prostate-homing peptides with pro-apoptotic activity” (priority 2000, published 2001)
